Data published in PubChem BioAssay (NCI).
Several values for one entry are separate records, joined by “and”; a condition that tells them apart may be missing. Identical values can stand only once.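 In this assay, cells in 96-well plates receive the compound at five concentrations for 48 hours. Endpoints are linearly interpolated between the surrounding concentrations. The concentration for 50% growth inhibition is given as GI50. TGI: total growth inhibition.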

Key:
Assay in all cases: NCI tumour cell line growth inhibition, 48 h
[1] = system: DLD-1 colon
[2] = system: DMS 114 small cell lung
[3] = system: DMS 273 small cell lung
[4] = system: HOP-18 NSCLC
[5] = system: M19-MEL melanoma
[6] = system: MDA-N
[7] = system: SNB-78 CNS
[8] = system: XF 498 CNS
[9] = system: RXF-631 renal
[10] = system: P388 leukemia
[11] = system: P388/ADR leukemia
[12] = system: SN12K1 renal

Cc1cc(NC(=O)C(=O)Cc2nc3ccccc3s2)ccc1Cl
TGI [1]: > 100 µM
TGI [2]: > 100 µM
TGI [3]: > 100 µM
TGI [4]: > 100 µM
TGI [5]: > 100 µM
TGI [6]: > 100 µM
TGI [7]: > 100 µM
TGI [8]: > 100 µM

Clc1ccc(CCn2cncn2)c(Cl)c1
TGI [1]: > 100 µM
TGI [2]: > 100 µM
TGI [3]: > 100 µM
TGI [4]: > 100 µM
TGI [5]: > 100 µM
TGI [7]: > 100 µM

N=C1N=Nc2nc(C3(c4nc5n(c4O)C(=N)N=N5)Cc4ccccc4C3=O)c(O)n21 (stereo not given)
TGI [6]: > 100 µM

Cn1c(-c2ccccc2)c/c(=N\NS(C)(=O)=O)c2cc(S(=O)(=O)O)ccc21
TGI [1]: > 100 µM
TGI [2]: > 100 µM
TGI [3]: > 100 µM
TGI [4]: > 100 µM
TGI [5]: > 100 µM
TGI [7]: > 100 µM
TGI [8]: > 100 µM

N#Cc1ccccc1/C=N/O
TGI [1]: > 100 µM
TGI [2]: > 100 µM
TGI [3]: > 55.6 µM
TGI [4]: > 100 µM
TGI [5]: > 100 µM
TGI [7]: > 100 µM
TGI [8]: > 100 µM

NS(=O)(=O)c1ccc(NCc2cnc3ccccc3c2)cc1
TGI [6]: > 100 µM

Cn1c2ccccc2c(=S)c2cc(NC(=O)CCCCC(=O)Nc3ccc4c(c3)c(=S)c3ccccc3n4C)ccc21
TGI [6]: > 100 µM

O=S(=O)(c1ccccc1)C1CN(Cc2ccccc2)CCN(Cc2ccccc2)C1
TGI [1]: 84.7 µM
TGI [2]: > 100 µM
TGI [3]: > 100 µM
TGI [5]: > 100 µM
TGI [6]: 59.5 µM
TGI [8]: 63 µM

O=c1[nH]c(C2CCCCC2)nc2cc(Cl)ccc12
TGI [2]: > 100 µM
TGI [3]: > 100 µM
TGI [5]: > 100 µM
TGI [7]: > 100 µM

O=C1[C@H](c2ccccc2)C2c3ccccc3CCN12 (stereo not given in full)
GI50 [6]: > 100 µM
TGI [6]: > 100 µM

FC(F)(F)c1ccccc1C=NC12CC3CC(CC(C3)C1)C2
TGI [2]: > 100 µM
TGI [3]: > 100 µM
TGI [5]: > 100 µM
TGI [7]: > 100 µM
TGI [8]: > 100 µM

Cc1ccc(S(=O)(=O)NC(=O)Nc2nc(Cl)cc(Cl)n2)cc1
TGI [1]: > 100 µM
TGI [2]: > 100 µM
TGI [4]: > 100 µM
TGI [5]: > 100 µM
TGI [9]: > 100 µM
TGI [7]: > 100 µM
TGI [8]: > 100 µM

O=C(Cc1nc2ccccc2s1)NC12CC3CC(CC(C3)C1)C2
TGI [1]: > 100 µM
TGI [3]: > 100 µM
TGI [5]: > 100 µM
TGI [9]: > 100 µM
TGI [7]: > 100 µM

[O-][N+]1=C(c2ccccc2)COc2ccccc21
TGI [1]: > 100 µM
TGI [2]: > 100 µM
TGI [3]: > 100 µM
TGI [4]: > 100 µM
TGI [5]: > 100 µM
TGI [9]: > 100 µM
TGI [7]: > 100 µM

COc1cc([C@@H]2c3cc4c(cc3[C@@H](NC(=O)c3ccc([N+](=O)[O-])cc3)C3COC(=O)[C@@H]32)OCO4)cc(OC)c1O (stereo not given in full)
TGI [1]: 11.3 µM
TGI [2]: 2.35 µM
TGI [3]: 3.54 µM
TGI [4]: > 100 µM
TGI [5]: 19 µM
TGI [9]: 4.48 µM
TGI [7]: 75.5 µM
TGI [8]: 0.964 µM

Cc1ccccc1C(C#N)/C(=N/NC(=O)C(=O)NN)C(=O)Nc1cccc(C(F)(F)F)c1 (stereo not given)
TGI [1]: > 100 µM
TGI [2]: > 100 µM
TGI [3]: > 100 µM
TGI [4]: > 100 µM
TGI [5]: > 100 µM
TGI [9]: > 100 µM
TGI [7]: > 100 µM

O=C(Nc1ccc(Cl)cc1Cl)/C(Cl)=C1/Sc2ccccc2NC1=O
TGI [1]: > 100 µM
TGI [2]: 80 µM
TGI [5]: > 100 µM
TGI [7]: > 100 µM
TGI [8]: 40.5 µM

CNC(=S)N/N=C(/C)CCC/C(C)=N/NC(=S)NC
TGI [6]: > 100 µM

COC(=O)C12OCC34C(CC5C(C)=CC(=O)C(O)C5(C)C3C(O)C1O)OC(=O)C(OC(=O)CC(C)C)C24 (stereo not given)
GI50 [1]: 0.0633 µM and 0.05 µM
GI50 [2]: 0.133 µM
GI50 [4]: 0.00907 µM and 0.0441 µM and 0.05 µM
TGI [4]: 0.0463 µM and 0.274 µM and 0.219 µM
GI50 [5]: < 0.0377 µM
TGI [6]: 0.00503 µM
GI50 [10]: 0.05 µM
GI50 [11]: 0.0657 µM
GI50 [12]: 0.000382 µM
TGI [12]: 0.00272 µM
GI50 [7]: 0.0748 µM and 0.05 µM
GI50 [8]: 0.041 µM and 0.05 µM

C=C1CCC2C(C)(CO)C(O)CCC2(C)C1CC(O)C1=CCOC1=O (stereo not given)
TGI [1]: > 100 µM
TGI [2]: > 100 µM
TGI [3]: > 100 µM
TGI [4]: > 100 µM
TGI [5]: > 100 µM
TGI [9]: > 100 µM

COC(=O)CCC(=O)C(C#N)c1ccc(Cl)cc1Cl (stereo not given)
TGI [1]: > 100 µM
TGI [3]: > 100 µM
TGI [5]: > 100 µM
TGI [9]: > 100 µM
TGI [7]: > 100 µM
TGI [8]: > 100 µM

COc1ccc2c(c1)N(CCC1CCCCN1C)c1ccccc1S2 (stereo not given)
TGI [6]: 25.7 µM

C/C(CC(=O)Nc1ccc([N+](=O)[O-])cc1)=N/N=C(N)N
TGI [1]: > 100 µM
TGI [2]: > 100 µM
TGI [3]: > 100 µM
TGI [5]: > 100 µM
TGI [9]: > 100 µM
TGI [7]: > 100 µM
TGI [8]: > 100 µM

Cc1cc2c(=O)cc(-c3ccc(C(=O)O)cc3)oc2c(C(=O)O)c1C
TGI [1]: > 100 µM
TGI [2]: > 100 µM
TGI [3]: > 100 µM
TGI [4]: > 100 µM
TGI [5]: > 100 µM
TGI [9]: > 100 µM
TGI [7]: > 100 µM

COc1ccc(OC)c(/C=C/c2cnnc3ccccc23)c1
TGI [6]: 2.5 µM

O=C(CCc1cc(-c2ccco2)n(-c2ccc([N+](=O)[O-])cc2[N+](=O)[O-])n1)Nc1ccccc1
TGI [1]: > 100 µM
TGI [2]: > 100 µM
TGI [3]: > 100 µM
TGI [5]: > 100 µM
TGI [9]: > 100 µM
TGI [7]: > 100 µM
TGI [8]: > 100 µM

O=[N+]([O-])c1ccc(C2N3CCCCC3[C@@H]3c4[nH]c5ccccc5c4CCN23)cc1 (stereo not given in full)
TGI [1]: 57.7 µM
TGI [2]: 22 µM
TGI [3]: > 100 µM
TGI [4]: > 100 µM
TGI [5]: 24.4 µM
TGI [9]: > 100 µM
TGI [7]: 21.6 µM
TGI [8]: 33.9 µM

NC(CCCNCc1ccccc1O)C(=O)O (stereo not given)
TGI [1]: > 100 µM
TGI [2]: > 100 µM
TGI [3]: > 100 µM
TGI [4]: > 100 µM
TGI [5]: > 100 µM
TGI [7]: > 100 µM

COC(=O)c1cc(O)ccc1NC(=O)c1ccc(O)cc1
TGI [1]: > 100 µM
TGI [2]: > 100 µM
TGI [4]: > 100 µM
TGI [5]: > 100 µM
TGI [9]: > 100 µM
TGI [7]: > 100 µM
TGI [8]: > 100 µM

C/C(CN1C(=O)c2ccccc2C1=O)=N\NS(C)(=O)=O
TGI [1]: > 100 µM
TGI [2]: > 100 µM
TGI [3]: > 100 µM
TGI [4]: > 100 µM
TGI [5]: > 100 µM
TGI [7]: > 100 µM
TGI [8]: > 100 µM

COC1(C)Cc2c(c(C)c(O)c3c2C(=O)C=C(Cl)C3=O)O1 (stereo not given)
TGI [1]: 37.1 µM
TGI [2]: 76.6 µM
TGI [3]: > 100 µM
TGI [5]: 38.9 µM
TGI [6]: > 100 µM
TGI [8]: > 56.4 µM

O=C(/C=C/c1ccc2c(c1)OCO2)c1ccccc(=O)c1O
TGI [6]: > 100 µM
